Experiment [1] relates to PDX tumors (cholangiocarcinoma, pancreatic cancer, gastric cancer, endometrial cancer, uterine sarcoma). As to the kind of experiment: Therapeutic effect of E7820 in patient-derived xenograft (PDX) mouse models and relationship with gene mutations (Example 1). Type of experiment: in vivo, human patient-derived tumors in NOG mice. As to the method:
In 30 cases of patient-derived xenograft (PDX) mouse models, the therapeutic effect of the cancer therapeutic E7820 that regulates splicing function and the presence or absence of various gene mutations were evaluated.
PDX model mice were prepared by transplanting 2-3 mm square PDX tumor fragments subcutaneously into the back of test animals and allowing them to grow. The test animals used were NOD.Cg-Prkdcscidll2rgtmlSug/ShiJic (NOG mice), female, and 6 weeks old or older. Tumor tissues from 30 patients, including 9 cases of cholangiocarcinoma, 9 cases of pancreatic cancer, 6 cases of gastric cancer, 3 cases of endometrial cancer, and 3 cases of uterine sarcoma, were used as tumor tissues. Grouping was performed when the average tumor volume of the experimental animals reached a size suitable for grouping (approximately 200 mm^3), with each group consisting of n=3-5 mice.
From the day of grouping, E7820 was administered orally at a dose of 100 mg/kg once daily to the 30 PDX model mice prepared in 1-1. Body weight and tumor volume were measured twice a week during the observation period from the day before drug administration and from the day drug administration started (day 0) to day 21. Tumor volume was measured by measuring the long and short diameters of the tumor using calipers and calculating the tumor volume according to the following formula. For animals with no detectable tumor, the tumor volume was set to 0.00 mm^3.
Tumor volume (mm^3)=½×long diameter (mm)×short diameter (mm)×short diameter (mm)
Whole exome sequencing (WES), one of the next-generation sequencing methods, was performed on genomic DNA extracted from the PDX using the NovaSeq 6000 system (Illumina), and mutation analysis was conducted.
A general note: Xenograft models place foreign cells or tissue in a host animal.

The next experiment deals with DLD-1 cells (parental). As to the kind of experiment: Growth inhibition of DLD-1 cells (parental), 12-day culture, photographed (Example 3). Type of experiment: cell-based. The conditions noted are these: day 12. How it is done:
(§1) DLD-1 cells (parental), DLD-1-BRCA2 KO (BRCA2 KO), or DLD-1-BRCA2 KO+BRCA2 WT (BRCA2 KO+WT) were seeded at 3×10^3 cells per well in a 6-well plate and incubated at 37 °C under 5% CO2. After removing the medium, a medium containing no drug, or containing 100 nM E7820, 1 μM E7820, 1 μM Indisulam (E7070), or 1 μM olaparib was added, and the cells were cultured at 37 °C under 5% CO2. The medium was replaced with fresh medium containing the same concentration of the drug on days 3, 6, and 9, with the day of drug addition being day 0. On day 12, the cells were photographed, and the sensitivity of the cells to each drug was evaluated.

The test system of experiment [2] is DLD-1-BRCA2 KO (BRCA2 KO). Kind of experiment: Growth inhibition of DLD-1-BRCA2 KO, 12-day culture, photographed (Example 3). It counts as cell-based. The conditions noted are these: 1 μM; day 12. As to the method: as §1
For experiment [3], the system named is DLD-1-BRCA2 KO+BRCA2 WT (BRCA2 KO+WT). As to the kind of experiment: Growth inhibition of DLD-1-BRCA2 KO+BRCA2 WT, 12-day culture, photographed (Example 3). It counts as cell-based. The conditions noted are these: 1 μM; day 12. As to the method: as §1
The subject of another experiment is RBM39 (CAPERα). To be noted: mechanism of action; Non Patent Literature 1; cited from earlier work.
The next experiment has as its system γH2AX in wild-type DLD-1. Kind of experiment: Induction of DNA double-strand breaks (γH2AX Western blotting) in wild-type DLD-1 (Example 4). Type of experiment: cell-based. To be noted: 1 μM; 72 hours. As to the method:
DLD-1 cells (parental), DLD-1-BRCA2 KO (BRCA2 KO), or DLD-1-BRCA2 KO+BRCA2 WT (BRCA2 KO+WT) were seeded at 1×10^6 cells per well in a 6-well plate and incubated at 37 °C under 5% CO2. After removing the medium, a medium containing no drug, or containing 1 μM E7820, 1 μM Indisulam (E7070), or 1 μM olaparib was added, and the cells were cultured at 37 °C under 5% CO2 for 72 hours. After removing the medium, the cells were washed with PBS, cooled on ice, and RIPA buffer (containing protease and phosphatase inhibitors, Proteintech) was added. The cells were collected using a cell scraper. The collected samples were incubated on ice for 30 minutes, then centrifuged at 12,000×g for 15 minutes at 4 °C to pellet the cell debris. The supernatant was transferred to a new microtube without touching the pellet to obtain the lysate. The obtained lysate was used for SDS-PAGE, membrane transfer, and Western blotting to evaluate the induction of DNA double-strand breaks. The antibodies used for Western blotting were Anti-phospho-Histone H2A.X (Ser139) Antibody (anti-yH2AX antibody, cat #05-636, Sigma-Aldrich) and GAPDH (14C10) Rabbit mAb (anti-GAPDH antibody, cat #2118, Cell Signaling Technology).
Background: Immunoblotting shows a protein as a band on a membrane.

Setting [4] is: 100 mg/kg orally once daily, day 21, among 14 cases with tumor reduction.
Setting [5] is: 100 mg/kg orally once daily, day 21, among 16 cases without tumor reduction.

On to `Cc1ccc(NS(=O)(=O)c2cccc(C#N)c2)c2[nH]cc(C#N)c12` [E7820, N-(3-cyano-4-methyl-1H-indol-7-yl)-3-cyanobenzenesulfonamide], for which, in experiment [1] (setting [4]), the “number of cases with mutations in one or more of BRCA1, BRCA2, ATM, ATR, and BAP1 among the 14 cases with tumor reduction effect” value is 11 cases; the “percentage of cases with mutations in one or more of BRCA1, BRCA2, ATM, ATR, and BAP1 among the 14 cases with tumor reduction effect” value was 79%. Besides, in experiment [1] (setting [5]), the “number of cases with mutations in one or more of the five genes among the 16 cases without tumor reduction effect” value was 3 cases and the “percentage of cases with mutations in one or more of the five genes among the 16 cases without tumor reduction effect” value came out at 19%. In addition, the “PDX model mice in which the tumor volume on day 21 was smaller than on day 0 (tumor reduction effect)” value in experiment [1] (100 mg/kg orally once daily, day 21 vs day 0) is recorded as 14 out of the 30 PDX model mice. In addition, in experiment [1] (100 mg/kg orally once daily, day 21 vs day 0, 30 PDX models), the “cases in which no tumor reduction effect was observed” value stood at 16 cases. In addition, in experiment [1] (PDX model mouse, tumor with mutation in homologous recombination repair-related gene), the “tumor reduction effect in model mouse transplanted with a tumor having a mutation in a homologous recombination repair-related gene” value was “high tumor reduction effect”. Besides, in the experiment with DLD-1 cells (parental) (100 nM), the growth inhibitory effect entry is “no growth inhibitory effect was observed”. Moreover, the growth inhibitory effect result with DLD-1 cells (parental) (1 μM) is “no growth inhibitory effect was observed”. Moreover, in experiment [2], the growth inhibitory effect entry was “significant growth inhibitory effects”, the “induction of cell death” value is recorded as “induction of cell death were observed” and the remaining cells result was “almost no remaining cells”. Also, in experiment [3], the growth inhibitory effect result was “growth inhibitory effects were observed” and the “growth of surviving cells” value was “the growth of surviving cells was observed”. For the same compound, the “promotion of the proteasomal degradation of RBM39” value (shortened to “promotion”) in the experiment with RBM39 (CAPERα) is on record as “promotion of the proteasomal degradation of RBM39”.

`NS(=O)(=O)c1ccc(S(=O)(=O)Nc2cccc3c(Cl)c[nH]c23)cc1` [Indisulam, N-(3-chloro-1H-indol-7-yl)-4-sulfamoylbenzenesulfonamide]: the growth inhibitory effect entry in the experiment on DLD-1 cells (parental) (1 pM (so in the source)) is given as “no growth inhibitory effect was observed”. In experiment [2], the growth inhibitory effect entry is given as “significant growth inhibitory effects”, the “induction of cell death” value is listed as “induction of cell death were observed” and the remaining cells result is “almost no remaining cells”. Besides, in experiment [3], the growth inhibitory effect entry is reported as “growth inhibitory effects were observed” and the “growth of surviving cells” value was “the growth of surviving cells was observed”. Moreover, in the experiment on RBM39 (CAPERα), the “promotion” value is given as “promotion of the proteasomal degradation of RBM39”.

On to `Nc1ccc(S(=O)(=O)Nc2cnc3c(Cl)cccc3n2)cc1` [NSC339004, 4-amino-N-(5-chloroquinoxalin-2-yl)benzenesulfonamide], for which the “promotion” value in the experiment on RBM39 (CAPERα) is reported as “promotion of the proteasomal degradation of RBM39”.

Regarding `O=C(c1cc(Cc2n[nH]c(=O)c3ccccc23)ccc1F)N1CCN(C(=O)C2CC2)CC1` [olaparib], the growth inhibitory effect result in the experiment on DLD-1 cells (parental) (1 μM) is reported as “no growth inhibitory effect was observed”. Further, in experiment [2], the growth inhibitory effect entry is “significant growth inhibitory effects”, the “induction of cell death” value was “induction of cell death were observed” and the remaining cells result was “almost no remaining cells”. In experiment [3], the growth inhibitory effect entry was “growth inhibitory effects were observed” and the “growth of surviving cells” value is listed as “the growth of surviving cells was observed”. For the same compound, the γH2AX levels result in the experiment on γH2AX in wild-type DLD-1 is listed as “increase in γH2AX levels”.

These data come from patent US20260364077A1, “Method for Predicting Success in Test Subject of Cancer Treatment Drug Which Regulates Splicing Function” (NATIONAL CANCER CENTER, priority 2022, published 2026).
